Assay results published in paper PMC8032764 (Scientific Reports, 2021).
Where “and” joins values, the source holds several entries; their conditions need not be identical. Identical values can stand only once. Like-named read-outs stand apart in the source and are kept apart here.

Assays:
Histamine H2 = test system: T1, Histamine H2; assay: Cerep binding; design: species or system human; settings: 10 μM; [125I]APT; hum. recomb. (CHO)
T1 construct: host or cells: CHO

Wistar rats = assay: Pentylenetetrazole (PTZ) test; format: in vivo, rat
Method: PTZ was prepared in 0.9% saline and was administered s.c. in a volume of 1 mL/kg. The positive control FG7142, a non-selective GABAA receptor NAM, was prepared in 0.3% Tween 80 v/v saline and was administered i.p. in a volume of 1 mL/kg. […] During this period the number of rats showing tonic convulsions was noted.
FG7142 was administered at 10 mg/kg 30 min prior to PTZ. The percent of rats in each dose group showing tonic convulsions was compared to the control group by the Pearson Chi-Square test.

SKCa channel = assay: Cerep binding; settings: 10 μM; [125I]apamin; rat cerebral cortex
Adrenergic β1 = test system: T2, Adrenergic β1; assay: Cerep binding; design: species or system human; settings: 10 μM; [3H](-)CGP 12177; hum. recomb. (HEK-293)
T2 construct: host or cells: HEK-293

[1] = Pharmacokinetics, single oral dosing; format: in vivo, Cynomolgus macaque; settings: cynomolgus monkey, plasma, 10 mg/kg oral, microsuspension, n = 3 male
Method: Concentrations were chosen to achieve the desired doses by administering 5 mL/kg to rats and 2.5 mL/kg to NHPs via oral gavage.
The calibration range was from 1.0 to 5000 ng/mL. After protein precipitation with ethanol, the sample solution was injected onto a Gemini C18 trapping column (2 × 10 mm; Phenomenex, Torrance, CA, USA) and polar endogenous compounds and salts were rinsed off. Analytical separation was performed on an Atlantis T3 column (2.1 × 50 mm) (Waters, Milford, MA, USA), using methanol/water containing 0.1% formic acid as mobile phase. A drug analogue was used as an internal standard.

Na+ channel (site 2) = assay: Cerep binding; settings: 10 μM; [3H]batrachotoxinin; rat cerebral cortex
Neuropeptide Y1 = test system: T3, Neuropeptide Y1; assay: Cerep binding; design: species or system human; settings: 10 μM; [125I]peptide YY; hum., SK-N-MC cells
T3 construct: purchased Eurofins Cerep

[2] = test system: Adrenergic α2 (non-selective); assay: Cerep binding; settings: 10 μM; [3H]RX 821002; rat cerebral cortex
[3] = Plasma levels, prepulse inhibition; format: in vivo, rat; settings: approximately 60 min, mean ± SD
Method: intensities (72, 76, 80, 84 dB) at total plasma concentrations of 56 ± 20, 169 ± 20, and […]
Compound administered at 1, 3 and 10 mg/kg p.o. to male Sprague-Dawley rats 30 min prior to testing. Bars indicate mean percent prepulse inhibition (% PPI) ± SEM; 10 animals per dose group. Background noise: 68 dB. Startle pulse: 12 0 dB. For full methods refer to:
Nordquist et al. (2008). Effects of aripiprazole/OPC-14597 on motor activity, pharmacological models of psychosis, and brain activity in rats. Neuropharmacology , 54,405-416.
Animals were euthanized at the end of testing and plasma samples were collected approximately 60 min post administration; n = 4 rats per group.
(1 picture or pasted object on this page, not shown here)

GABA (non-selective) = assay: Cerep binding; settings: 10 μM; [3H]GABA; rat cerebral cortex
[4] = test system: T4, Prostanoid TP (TXA2/PGH2); assay: Cerep binding; design: species or system human; settings: 10 μM; [3H]SQ 29548; hum. recomb. (HEK-293)
T4 construct: host or cells: HEK-293

dogs = assay: GLP toxicology and safety pharmacology, daily oral administration; format: in vivo, dog
Kv channel = assay: Cerep binding; settings: 10 μM; [125I]α−dendrotoxin; rat cerebral cortex
Adenosine A2A = test system: T5, Adenosine A2A; assay: Cerep binding; design: species or system human; settings: 10 μM; [3H]CGS 21680; hum. recomb. (HEK-293)
T5 construct: host or cells: HEK-293

human GABAA α5β3γ2 = human GABAA α5β3γ2 (Homo sapiens, UniProt P18507+P31644); assay: biochemical; settings: 1 nM [3H]-flumazenil
Method: HEK293-EBNA cells adapted to grow in suspension were transiently transfected with the plasmids containing the desired GABAA receptor subunit cDNAs at α, β, γ, 1:1:2 ratio using XtremeGENE Q2 (Cat. No. 03045595001, Roche Applied Science, RAS, Rotkreuz, Switzerland) as previously described. GABAA α1β2γ2, α2β3γ2, α3β3γ2, α4β3γ2, α5β3γ2 and α6β3γ2 receptor subtypes were expressed in this system. 48 h post transfection, the cells were harvested and washed three times with cold PBS and frozen at − 80 °C.
Non-specific binding was determined in the presence of 10 μM diazepam.

[5] = test system: Ca2+ channel, L-type (phenylalkylamine site); assay: Cerep binding; settings: 10 μM; [3H](-)D 888; rat cerebral cortex
[6] = Plasma levels, object retrieval task; format: in vivo, Macaca fascicularis; settings: cynomolgus monkey, oral; for concentration at 180 min: read-out: total plasma concentration
Method: Twelve cynomolgus macaques were presented with a clear acrylic box with one open side baited with a food treat, as described previously[14],[38]. The test is easy when the open side of the box is directed towards the subject and difficult when the open sides face other directions. […] Compound doses were administered in a pseudorandom order. Administration of dose and behavioral measurements were completed blind. Data were analysed using a one-way repeated measures ANOVA followed, in significant cases, by a post hoc Dunnett’s test. Plasma samples were collected from the same three subjects at each dose group at 3 h post administration. […] The calibration range was from 1.0 to 5000 ng/mL. After protein precipitation with ethanol, the sample solution was injected onto a Gemini C18 trapping column (2 × 10 mm; Phenomenex, Torrance, CA, USA) and polar endogenous compounds and salts were rinsed off. […] A drug analogue was used as an internal standard.

Adenosine A3 = test system: T6, Adenosine A3; assay: Cerep binding; design: species or system human; settings: 10 μM; [125I]AB-MECA; hum. recomb. (HEK-293)
T6 construct: host or cells: HEK-293

Sequence of human GABAA α5β3γ2 (P31644 32-462): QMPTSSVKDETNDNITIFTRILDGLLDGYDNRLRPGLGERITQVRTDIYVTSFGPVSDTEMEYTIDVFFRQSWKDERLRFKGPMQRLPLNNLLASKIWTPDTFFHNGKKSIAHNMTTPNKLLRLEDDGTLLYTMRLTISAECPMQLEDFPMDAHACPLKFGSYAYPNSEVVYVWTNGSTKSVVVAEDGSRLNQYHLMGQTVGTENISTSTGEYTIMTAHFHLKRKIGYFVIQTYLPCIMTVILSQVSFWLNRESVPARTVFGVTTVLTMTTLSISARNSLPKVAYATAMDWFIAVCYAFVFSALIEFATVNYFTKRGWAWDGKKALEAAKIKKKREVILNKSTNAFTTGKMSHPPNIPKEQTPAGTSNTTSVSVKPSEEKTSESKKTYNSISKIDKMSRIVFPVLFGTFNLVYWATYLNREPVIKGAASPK
Sequence of human GABAA α5β3γ2 (P28472 26-473 partner): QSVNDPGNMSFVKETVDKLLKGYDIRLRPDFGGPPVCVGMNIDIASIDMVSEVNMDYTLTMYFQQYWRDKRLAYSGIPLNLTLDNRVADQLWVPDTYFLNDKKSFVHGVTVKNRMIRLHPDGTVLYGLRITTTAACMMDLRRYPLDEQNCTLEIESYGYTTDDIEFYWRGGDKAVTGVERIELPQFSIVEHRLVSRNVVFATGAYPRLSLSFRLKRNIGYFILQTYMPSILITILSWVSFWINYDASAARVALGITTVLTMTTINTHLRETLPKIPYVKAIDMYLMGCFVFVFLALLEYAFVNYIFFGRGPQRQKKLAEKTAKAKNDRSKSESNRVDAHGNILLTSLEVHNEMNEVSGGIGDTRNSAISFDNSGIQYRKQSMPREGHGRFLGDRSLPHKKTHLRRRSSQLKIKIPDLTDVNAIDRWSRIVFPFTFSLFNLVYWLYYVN
Sequence of human GABAA α5β3γ2 (P18507 40-475): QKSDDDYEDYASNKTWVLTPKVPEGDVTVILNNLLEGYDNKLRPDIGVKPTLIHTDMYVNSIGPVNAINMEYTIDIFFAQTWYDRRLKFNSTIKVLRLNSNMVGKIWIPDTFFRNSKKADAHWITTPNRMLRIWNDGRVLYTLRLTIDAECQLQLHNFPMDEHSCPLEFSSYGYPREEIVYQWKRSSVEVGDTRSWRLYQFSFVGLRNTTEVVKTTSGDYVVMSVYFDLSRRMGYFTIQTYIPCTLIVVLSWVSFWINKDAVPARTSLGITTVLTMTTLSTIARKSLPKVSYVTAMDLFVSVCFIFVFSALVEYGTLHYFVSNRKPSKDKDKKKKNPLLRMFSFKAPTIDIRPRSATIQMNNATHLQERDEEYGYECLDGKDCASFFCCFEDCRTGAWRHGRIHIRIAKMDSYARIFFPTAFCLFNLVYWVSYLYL

Cc1onc(-c2ccc(F)cc2)c1COc1ccc(C(=O)N2CCS(=O)(=O)CC2)cn1 [basmisanil]
% Inhibition (Histamine H2): 8%
proconvulsant activity (Wistar rats; female rats, 30 mg/kg, 2 h prior to PTZ 70 mg/kg): did not exert proconvulsant activity
rats exhibiting tonic convulsions (Wistar rats; female rats, 100 mg/kg, threshold dose of PTZ, p < 0.05): five out of eight
rats exhibiting tonic convulsions, compared with 100 mg/kg (Wistar rats; female rats, 300 and 600 mg/kg, p < 0.05): identical effects
proconvulsant activity (Wistar rats; male rats, single doses up to 100 mg/kg, 1 h prior to PTZ 55 mg/kg): did not exert proconvulsant activity
% Inhibition (SKCa channel): 3%
% Inhibition (Adrenergic β1): 6%
bioavailability [1]: 48%
Tmax ([1]; median, read-out: Tmax (range)): 1.5 h
AUC(0-t) ([1]; ± standard deviation): 27500 ng·h/mL
Cmax ([1]; ± standard deviation): 3650 ± 110 ng/mL
% Inhibition (Na+ channel (site 2)): 0%
% Inhibition (Neuropeptide Y1): 0%
% Inhibition [2]: -8%
total plasma concentration ([3]; 1 mg/kg p.o.): 56 ± 20 ng/mL
total plasma concentration ([3]; 3 mg/kg p.o.): 169 ± 20 ng/mL
total plasma concentration ([3]; 10 mg/kg p.o.): 729 ± 255 ng/mL
% Inhibition (GABA (non-selective)): -1%
% Inhibition [4]: 5%
exposures with lack of clinical signs and convulsion symptoms (dogs; GLP toxicology studies in dogs): up to 4590 ng/mL
convulsions and EEG alterations (dogs; daily oral, supra-therapeutic plasma exposures, up to 39 weeks): no convulsions and no EEG alterations
% Inhibition (Kv channel): -1%
% Inhibition (Adenosine A2A): 9%
Ki (human GABAA α5β3γ2): 5 nM and 5.1 nM
% Inhibition [5]: -3%
concentration at 180 min ([6]; 1 mg/kg p.o.): 257 ng/mL
concentration at 180 min ([6]; 3 mg/kg p.o.): 1020 ng/mL
concentration at 3 h ([6]; 3 mg/kg p.o., read-out: free plasma concentration): 156 nM
concentration at 180 min ([6]; 10 mg/kg p.o.): 2260 ng/mL
concentration at 180 min ([6]; 30 mg/kg p.o.): 2850 ng/mL
% Inhibition (Adenosine A3): 6%
